Assay results from US20260355199A1, “COMPOSITIONS AND METHODS FOR TREATING OR PREVENTING NONALCOHOLIC STEATOHEPATITIS (NASH), ANOREXIA, DEPRESSION, ENDOMETRIOSIS, AND OTHER DISEASES OR DISORDERS” (priority 2022, published 2026).

Assays:
Type in all cases: cell-based
[1] = test system: HT-22 mouse hippocampal neuronal cells; test: DNA 5hmC level in HT-22 hippocampal neuronal cells; conditions: 10 μM, 24 h
Text: It was not unprecedented that compounds initially developed as protein function inhibitors were later serendipitously found to be protein degraders (Bekes, M. et al., 2022, Nature Reviews Drug Discovery, 21(3):181-200).

[2] = test system: TET3; test: TET3 protein in SH-SY5Y human neuronal cells
Text: Mouse GT1-7 hypothalamic neuronal cell line (Sigma-Aldrich, SCC116) and human SH-SY5Y neuroblastoma cell line (Sigma Aldrich, 94030304) were purchased and cultured according to the manufacturers' instructions. Purified Ad-TET3 adenovirus (Ad-FLAG.h-TET3, ADV-225322, Vector Biolabs) expressing human TET3 from a CMV promoter and Ad-GFP control adenovirus (1060, Vector Biolabs) were purchased.
For Bobcat339 treatment (FIG. 15A and FIG. 15B), GT1-7 cells grown in 24-well plates at 2×10^5 cells/well were incubated with vehicle or Bobcat339 at a final concentration of 10 μM for 6 h, followed by RNA and protein extractions. For TET3 protein stability assay (FIG. 15B), GT1-7 cells in 24-well plates at 2×10^5 cells/well were incubated with vehicle or Bobcat339 at a final concentration of 10 μM for 3 hours, followed by addition of cycloheximide (CHX, Cell Signaling, 2112) at a final concentration of […] in the presence of 10 μM of Bobcat339. Proteins were harvested at 0, 1, 2, and 3 hours after addition of CHX. For TET3 expression restoration experiments (FIG. 15C and FIG. 15D), GT1-7 or SH-SY5Y cells seeded in 24-well plates at 2×10^5 cells/well were infected with Ad-GFP or Ad-TET3 at 4000 gc/cell. Following 16 h of infection, vehicle or Bobcat339 were added at a final concentration of 10 μM. Protein and RNA were isolated 48 h later and analyzed. […]

[3] = test system: TGF-β1, IL-1β, and IL-6; test: TGF-β1, IL-1β and IL-6 expression in human MDMs; conditions: TGF-β1-treated MDMs
Text: Next, the studies examined effects of TET3 knockdown on expression of TGF-β1, IL-1β, and IL-6 in human MDMs. TGF-β1 has been mechanistically linked to the pathogenesis NSCLC, endometriosis, and NASH (Saito et al., 2018, Int J Mol Sci, 19; Young et al., 2017, Hum Reprod Update, 23:548-559; Cai et al., 2020, Cell Metab, 31:406-421; Baba et al., 2022, Front Pharmacol, 13:791272). It is also an important factor in the conditioned media responsible for inducing TET3 overexpression (FIG. 24H, FIG. 24J, and FIG. 24K through FIG. 24M). Therefore, MDMs were treated with TGF-β1 to mimic microenvironment-induced TET3 overexpression, followed by siRNA transfection and gene expression analyses. […] ELISA was not used to measure TGF-β1 because the transfection experiments were performed in the presence of exogenous TGF-β1. […]
Proinflammatory activation of peritoneal macrophages and MDMs was achieved by treatment with a combination of 10 ng/mL of LPS (Invitrogen, 00-4976-93) and 20 ng/mL of IFN-γ (R&D Systems, 485-MI-100). IL-1β and IL-6 protein levels in the supernatant of cultured mouse peritoneal macrophages were measured using ELISA kits (R&D Systems, MLB00C and M6000B-1). […]
IL-1β protein level of cell lysates and IL-6 protein level of cell supernatants were determined using the kits (Elabscience, E-EL-H0149c and E-EL-H6165, respectively) according to the manufacturer's protocols. […]

Nc1nc(=O)n(-c2cccc(-c3ccccc3)c2)cc1Cl [Bobcat339, 4-Amino-1-[1,1′-biphenyl]-3-yl-5-chloro-2(1H)-pyrimidinone]
DNA 5hmC levels [1]: decreased DNA 5hmC levels
TET3 protein level / degradation [2]: induced protein degradation of TET3
TGF-β1, IL-1β, and IL-6 expression [3]: able to recapitulate these effects on all three factors
